Measured values: BindingDB's records for patent US20230365627 (Bristol Myers Squibb, 2023)
*1 amine or outer side, *2 acyl side, *3 side chain or, on linkers, in order; H or OH if unused. Where a SMILES comes first, the peptide text is derived from it. Bridges are numbered along the chain shown (N, C = ends). [ ]: non-standard residue; d: D form. X14 = O=C([C@H](CN1Cc2cccc(c2)B2OCC(O)[C@@H](O2)[C@@H](O)[C@H](O)[C@H](O)C1)N[*:1])[*:2]; X13 = O=C([C@H](CCNC[C@@H](O)[C@@H](O)[C@H](O)[C@H](O)C(O)CO)N[*:1])[*:2]; Trp(1-CH2COOH) = N[C@@H](Cc1cn(CC(=O)O)c2ccccc12)C(=O)O; Hyp = O=C(O)[C@@H]1C[C@@H](O)CN1; NMeNle = CCCC[C@H](NC)C(=O)O; NMeA = CN[C@@H](C)C(=O)O

molecular target: Programmed cell death 1 ligand/protein 1 (Homo sapiens, UniProt Q9NZQ7); experiment: Binding of PD-1 to PD-L1 Using Homogenous Time-Resolved Fluorescence (HTRF) Binding Assay
Description: Homogenous Time-Resolved Fluorescence (HTRF) Binding Assay. The interaction of PD-1 and PD-L1 can be assessed using soluble, purified preparations of the extracellular domains of the two proteins. The PD-1 and PD-L1 protein extracellular domains were expressed as fusion proteins with detection tags, for PD-1, the tag was the Fc portion of Immunoglobulin (PD-1-Ig) and for PD-L1 it was the 6 histidine motif (PD-L1-His). All binding studies were performed in an HTRF assay buffer consisting of dPBS supplemented with 0.1% […] bovine serum albumin and 0.05% (v/v) Tween-20. For the h/PD-L1-His binding assay, inhibitors were pre-incubated with PD-L1-His (10 nM final) for 15 m in 4 μl of assay buffer, followed by addition of PD-1-Ig (20 nM final) in 1 μl of assay buffer and further incubation for 15 m. HTRF detection was achieved using europium cryptate-labeled anti-Ig (1 nM final) and allophycocyanin (APC) labeled anti-His (20 nM final). Antibodies were diluted in HTRF detection buffer and 5 μl was dispensed on top of the binding reaction. The reaction mixture was allowed to equilibrate for 30 minutes and the resulting signal (665 nm/620 nm ratio) was obtained using an EnVision fluorometer. Additional binding assays were established between the human proteins PD-1-Ig/PD-L2-His (20 & 5 nM, respectively) and CD80-His/PD-L1-Ig (100 & 10 nM, respectively).

Programmed cell death 1 ligand/protein 1, sequence (Q9NZQ7 whole entry, the tested form may be a part): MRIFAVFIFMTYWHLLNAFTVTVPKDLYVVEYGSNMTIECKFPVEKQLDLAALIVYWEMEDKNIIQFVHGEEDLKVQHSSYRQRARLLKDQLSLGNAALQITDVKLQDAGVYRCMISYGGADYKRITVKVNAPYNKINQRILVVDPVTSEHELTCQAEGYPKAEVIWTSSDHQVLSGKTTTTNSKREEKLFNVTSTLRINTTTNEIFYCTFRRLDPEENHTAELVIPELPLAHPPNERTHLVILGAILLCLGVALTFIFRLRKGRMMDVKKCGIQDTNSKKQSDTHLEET
Programmed cell death 1 ligand/protein 1, sequence (Q15116 whole entry, further chain, the tested form may be a part): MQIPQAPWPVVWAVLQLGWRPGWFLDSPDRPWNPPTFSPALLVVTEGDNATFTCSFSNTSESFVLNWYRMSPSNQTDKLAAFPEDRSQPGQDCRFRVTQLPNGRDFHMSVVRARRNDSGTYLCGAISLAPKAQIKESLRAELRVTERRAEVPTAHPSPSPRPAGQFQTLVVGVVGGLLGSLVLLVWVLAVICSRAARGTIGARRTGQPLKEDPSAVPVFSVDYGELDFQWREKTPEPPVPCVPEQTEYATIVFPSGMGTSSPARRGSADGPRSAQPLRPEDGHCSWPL

Compound | IC50
CCCC[C@H]1C(=O)N(C)[C@@H](CCCC)C(=O)N[C@@H](CC(C)C)C(=O)N[C@H](C(=O)NCC(N)=O)CSCC(=O)N[C@@H](Cc2ccc(O)cc2)C(=O)N(C)[C@@H](C)C(=O)N[C@@H](CC(N)=O)C(=O)N2CCC[C@H]2C(=O)N[C@H]2CNC[C@@H](O)[C@@H](O)[C@H](O)[C@@H]3OB(OCC3O)c3ccccc3CNCC[C@H](NC(=O)[C@H](Cc3c[nH]c4ccccc34)NC(=O)[C@@H]3C[C@@H](O)CN3C(=O)[C@H](CC(C)C)NC2=O)C(=O)N[C@@H](Cc2cn(CC(=O)O)c3ccccc23)C(=O)N1C (some centres undefined) [US20230365627, Compound 1035] | 4 nM
CCCC[C@H]1C(=O)N(C)[C@@H](CCCC)C(=O)N[C@@H](CC(C)C)C(=O)N[C@H](C(=O)NCC(N)=O)CSCC(=O)N[C@@H](Cc2ccc(O)cc2)C(=O)N(C)[C@@H](C)C(=O)N[C@@H](CC(N)=O)C(=O)N2CCC[C@H]2C(=O)N[C@H]2CNC[C@@H](O)[C@@H](O)[C@H](O)[C@@H]3OB(OCC3O)c3cccc(c3)CNCC[C@H](NC(=O)[C@H](Cc3c[nH]c4ccccc34)NC(=O)[C@@H]3C[C@@H](O)CN3C(=O)[C@H](CC(C)C)NC2=O)C(=O)N[C@@H](Cc2cn(CC(=O)O)c3ccccc23)C(=O)N1C (some centres undefined) [US20230365627, Compound 1036] | 9.5 nM
CCCC[C@H]1C(=O)N(C)[C@@H](CCCC)C(=O)N[C@@H](CC(C)C)C(=O)N[C@H](C(=O)NCC(N)=O)CSCC(=O)N[C@@H](Cc2ccc(O)cc2)C(=O)N(C)[C@@H](C)C(=O)N[C@@H](CC(N)=O)C(=O)N2CCC[C@H]2C(=O)N[C@H]2CNC[C@@H](O)[C@@H](O)[C@H](O)[C@@H]3OB(OCC3O)c3ccc(cc3)CNCC[C@H](NC(=O)[C@H](Cc3c[nH]c4ccccc34)NC(=O)[C@@H]3C[C@@H](O)CN3C(=O)[C@H](CC(C)C)NC2=O)C(=O)N[C@@H](Cc2cn(CC(=O)O)c3ccccc23)C(=O)N1C (some centres undefined) [US20230365627, Compound 1037] | 9.5 nM
CCCC[C@H]1C(=O)N(C)[C@@H](CCCC)C(=O)N[C@@H](CC(C)C)C(=O)N[C@H](C(=O)NCC(N)=O)CSCC(=O)N[C@@H](Cc2ccc(O)cc2)C(=O)N(C)[C@@H](C)C(=O)N[C@@H](CC(N)=O)C(=O)N2CCC[C@H]2C(=O)N[C@@H](CN2Cc3cccc(c3)B3OCC(O)[C@@H](O3)[C@@H](O)[C@H](O)[C@H](O)C2)C(=O)N[C@@H](CC(C)C)C(=O)N2C[C@H](O)C[C@H]2C(=O)N[C@@H](Cc2c[nH]c3ccccc23)C(=O)N[C@@H](CCNC[C@@H](O)[C@@H](O)[C@H](O)[C@H](O)C(O)CO)C(=O)N[C@@H](Cc2cn(CC(=O)O)c3ccccc23)C(=O)N1C (some centres undefined) [US20230365627, Compound 1040] ({CH2CO}-Y[NMeA]NP[X14]L[Hyp]W[X13][Trp(1-CH2COOH)][NMeNle][NMeNle]LCG-NH2; thioether N-14) | 5.6 nM
